Assay results published in article PMC5626944 (Frontiers in Pharmacology, 2017).
Like-named read-outs stand apart in the source and are kept apart here.

Key:
[1] = biological target: T1, Low-sensitivity α4(3)β2(2) nAChRs (Mus musculus, UniProt O70174+Q9ERK7); assay: 86Rb+ efflux from thalamic and cortical synaptosomes, DhβE-insensitive component; type: biochemical
T1 construct: from tissue; host or cells: WT mouse thalamic and cortical synaptosomes
Procedure: (§1) Regions of interest were dissected from fresh mouse brains and homogenized in ice-cold isotonic sucrose (0.32 M), buffered with HEPES (5 mM, pH 7.5). The suspension was centrifuged at 12,000 × g for 20 min.

Bradykinin, BK2 = test system: T2, Bradykinin, BK2; assay: NovaScreen competition binding; conditions: 1 µM
T2 construct: PerkinElmer – Caliper Life Sciences (NovaScreen service)

[2] = test system: T3, Phosphodiesterase, PDE5A1 (h); assay: NovaScreen enzyme assay; type: biochemical, human; conditions: 1 µM
T3 construct: PerkinElmer – Caliper Life Sciences (NovaScreen service)

[3] = Pharmacokinetics in mice, plasma and brain by LC-MS/MS; type: in vivo, mouse; conditions: for half-life / Tmax: both sexes, mouse, plasma; for Tmax: read-out: Time of maximum plasma concentration
Procedure: Pharmacokinetic experiments with TC299423 were performed by Absorption Systems LP (Exton, PA, United States). […] Blood samples were taken and the brains were harvested 5 min, 15 min, 30 min, 1 h, 3 h, and 6 h after drug administration. […] Blood and brain samples were obtained at the same time points as above. Untreated plasma and blood samples were collected from three mice in the same cohort as the study animals for pre-dose (time 0) samples. Blood samples were collected by cardiac puncture and stored in tubes containing sodium heparin before being processed. Plasma was prepared and frozen for analysis. Brains were harvested, rinsed, patted dry, weighed, and frozen.
Matched matrix was used for preparation of calibration standards. Dosing solutions were normalized in matched matrix and analyzed in triplicate in the same analytical batch as the incurred samples.

α4β2 (α5KO) nAChRs = biological target: T4, α4β2 (α5KO) nAChRs (Mus musculus, UniProt O70174+Q9ERK7); assay: 86Rb+ efflux from α5KO thalamic and cortical synaptosomes; type: biochemical
T4 construct: from tissue; host or cells: thalamic and cortical synaptosomes of α5KO mice
Procedure: as §1

Opioid, Mu (h) = assay: NovaScreen competition binding; set-up: species or system human; conditions: 1 µM
Esterase, Acetylcholine = assay: NovaScreen enzyme assay; type: biochemical; conditions: 1 µM
Serotonin, 5HT1D = assay: NovaScreen competition binding; conditions: 1 µM
Adenosine, A1 = test system: T5, Adenosine, A1; assay: NovaScreen competition binding; conditions: 1 µM
T5 construct: PerkinElmer – Caliper Life Sciences (NovaScreen service)

[4] = 0.2 mg/kg ip; for [TC299423] in assay: brain; for Blood measurements: [TC299423]: serum
Procedure: Uninjected mice served as controls (n = 3 for each group). Trunk blood was collected into heparinized 1.5 mL polyethylene tubes. The tubes were centrifuged and the serum was collected. […] The cerebral cortex was dissected, placed in 1 mL of cold water, homogenized, and diluted to 3 mL with cold water. Epibatidine saturation curves were constructed for the cortical samples using eight concentrations of [^125I]epibatidine measured in triplicate (6, 12, 25, 50, 100, 200, 400, and 800 pM). The final assay volume was […] 50 μL of homogenate was added to each sample. Blanks included 100 μM nicotine. Samples were incubated at room temperature overnight. The samples were filtered, washed and counted. Inhibition of [^125I]epibatidine (325 pM) binding was measured by adding 1, 2, 5, 10, or 20 μL of serum to samples. The washed, particulate fraction from C57BL/6 cortex was the source of the binding sites.

α6β2* nAChRs = α6β2* nAChRs (Mus musculus, UniProt Q9ERK7+Q9R0W9); assay: [125I]epibatidine binding, striatal membranes from α4KO mice; set-up: from tissue; host or cells: striatal membranes from α4KO mice
Procedure: Brain membrane preparations were stored as pellets under buffer at -70°C or used immediately.

α4β2* nAChRs = α4β2* nAChRs (Mus musculus, UniProt O70174+Q9ERK7); assay: biochemical; type: biochemical; conditions: for Emax: relative to nicotine; for EC50: read-out: Neurotransmitter release EC50
Procedure: as §1
Superfusion proceeded at 0.7 mL/min for 10 min before stimulation with agonist for 20 s. Selected aliquots were perfused with α-CtxMII (50 nM) for 3 min immediately before stimulation. […] Fractions (∼0.1 mL) were collected into 96-well plates at 10 s intervals for 4 min (starting ∼1 min before stimulation).

Serotonin, 5HT2C = assay: NovaScreen competition binding; conditions: 1 µM
Muscarinic, M2 (h) = assay: NovaScreen competition binding; set-up: species or system human; conditions: 1 µM
[5] = test system: Glutamate, NMDA Agonist Site (Ionotropic); assay: NovaScreen competition binding; conditions: 1 µM
Serotonin, 5HT6 (h) = assay: NovaScreen competition binding; set-up: species or system human; conditions: 1 µM
Muscarinic, M4 (h) = assay: NovaScreen competition binding; set-up: species or system human; conditions: 1 µM
Adrenergic, Alpha 1B = test system: T6, Adrenergic, Alpha 1B; assay: NovaScreen competition binding; conditions: 1 µM
T6 construct: PerkinElmer – Caliper Life Sciences (NovaScreen service)

[6] = test system: Glutamate, NMDA, Phencyclidine Site (Ionotropic); assay: NovaScreen competition binding; conditions: 1 µM
Serotonin, 5HT7 (h) = assay: NovaScreen competition binding; set-up: species or system human; conditions: 1 µM

Chain of α4β2* nAChRs (O70174 31-629): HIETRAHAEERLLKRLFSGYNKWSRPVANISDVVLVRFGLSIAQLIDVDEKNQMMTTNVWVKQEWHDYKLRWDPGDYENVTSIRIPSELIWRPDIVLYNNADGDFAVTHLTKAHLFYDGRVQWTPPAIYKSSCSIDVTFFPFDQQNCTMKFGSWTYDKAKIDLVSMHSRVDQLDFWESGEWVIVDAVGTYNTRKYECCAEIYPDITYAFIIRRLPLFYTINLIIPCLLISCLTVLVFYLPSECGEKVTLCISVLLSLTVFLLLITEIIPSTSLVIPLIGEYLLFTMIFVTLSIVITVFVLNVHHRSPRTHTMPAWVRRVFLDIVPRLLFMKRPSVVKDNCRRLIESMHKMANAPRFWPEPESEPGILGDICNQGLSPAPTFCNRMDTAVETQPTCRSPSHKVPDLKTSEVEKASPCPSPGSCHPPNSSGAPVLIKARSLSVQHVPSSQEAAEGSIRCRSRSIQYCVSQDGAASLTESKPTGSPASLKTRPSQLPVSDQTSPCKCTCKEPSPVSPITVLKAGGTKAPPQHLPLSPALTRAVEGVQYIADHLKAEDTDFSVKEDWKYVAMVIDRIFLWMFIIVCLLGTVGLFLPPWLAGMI
Chain of α4β2* nAChRs (Q9ERK7 26-501): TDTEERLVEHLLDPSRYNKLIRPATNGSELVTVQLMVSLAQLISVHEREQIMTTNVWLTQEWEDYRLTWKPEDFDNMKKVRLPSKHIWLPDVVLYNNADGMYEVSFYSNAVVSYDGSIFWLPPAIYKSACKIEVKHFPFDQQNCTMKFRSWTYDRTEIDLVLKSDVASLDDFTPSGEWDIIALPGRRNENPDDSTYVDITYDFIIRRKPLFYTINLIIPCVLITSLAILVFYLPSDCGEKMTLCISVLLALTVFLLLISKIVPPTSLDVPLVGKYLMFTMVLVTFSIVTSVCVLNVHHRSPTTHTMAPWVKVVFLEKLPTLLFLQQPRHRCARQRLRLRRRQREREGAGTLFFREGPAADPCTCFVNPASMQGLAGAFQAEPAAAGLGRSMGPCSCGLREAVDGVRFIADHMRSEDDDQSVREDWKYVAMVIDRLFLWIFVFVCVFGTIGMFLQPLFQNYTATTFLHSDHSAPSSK
T1 sequence (O70174 31-629): as the sequence (O70174 31-629) above
T1 sequence (Q9ERK7 26-501): as the sequence (Q9ERK7 26-501) above
T4 sequence (O70174 31-629): as the sequence (O70174 31-629) above
T4 sequence (Q9ERK7 26-501): as the sequence (Q9ERK7 26-501) above
Chain of α6β2* nAChRs (Q9ERK7 26-501): as above
Chain of α6β2* nAChRs (Q9R0W9 31-494): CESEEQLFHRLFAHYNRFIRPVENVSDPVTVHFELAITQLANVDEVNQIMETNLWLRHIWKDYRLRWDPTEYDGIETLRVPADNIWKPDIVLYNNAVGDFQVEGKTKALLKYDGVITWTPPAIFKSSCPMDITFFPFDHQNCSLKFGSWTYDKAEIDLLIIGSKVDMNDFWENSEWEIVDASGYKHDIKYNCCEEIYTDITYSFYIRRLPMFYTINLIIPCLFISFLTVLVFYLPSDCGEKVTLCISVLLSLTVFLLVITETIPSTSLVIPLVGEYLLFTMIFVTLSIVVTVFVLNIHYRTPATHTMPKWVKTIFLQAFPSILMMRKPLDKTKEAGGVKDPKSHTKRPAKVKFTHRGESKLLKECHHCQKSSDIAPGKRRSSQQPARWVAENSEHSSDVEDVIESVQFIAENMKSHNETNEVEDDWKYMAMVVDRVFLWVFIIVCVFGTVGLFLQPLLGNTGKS

With `C1=C(/c2cncnc2)CCCNCC/1` [TC299423, (E)-5-(pyrimidin-5-yl)-1,2,3,4,7,8-hexahydroazocine] the “86Rb+ efflux Efficacy” value ([1]; Cortex) was 39 ± 4%, the EC50 ([1]; Cortex) was 26000 ± 21000 nM and the “86Rb+ efflux Efficacy” value ([1]; Thalamus) was 32 ± 10%. For the same compound, the EC50 ([1]; Thalamus) was 10000 ± 10000 nM, the Hit (Bradykinin, BK2) was “FALSE” and the Inhibition (Bradykinin, BK2; [3H]Bradykinin) was 32.29%. For the same compound, the Hit [2] was “FALSE”, the Inhibition ([2]; substrate Fluorescent cyclic GMP) was -3.00% and the Maximum brain-tissue concentration ([3]; 0.3 mg/kg ip) was 22 ± 0.43 ng/g. The Maximum plasma concentration ([3]; 0.3 mg/kg ip) was 49 ± 18 ng/mL, the “Time of maximum brain-tissue concentration” value ([3]; 0.3 mg/kg ip) was 0.5 h and the Maximum brain-tissue concentration ([3]; 0.3 mg/kg ip, converted) was 0.12 µM. For the same compound, the Maximum plasma concentration ([3]; 0.3 mg/kg ip, converted) was 0.26 µM, the Maximum brain-tissue concentration ([3]; 1 mg/kg oral) was 42 ± 17 ng/g and the Maximum plasma concentration ([3]; 1 mg/kg oral) was 38 ± 10 ng/mL. For the same compound, the “Time of maximum brain-tissue concentration” value ([3]; 1 mg/kg oral) was 0.25 h, the Maximum brain-tissue concentration ([3]; 1 mg/kg oral, converted) was 0.22 µM and the Maximum plasma concentration ([3]; 1 mg/kg oral, converted) was 0.20 µM. It also gave a half-life ([3]; 0.3 mg/kg ip) of 10.2 min, a Tmax ([3]; 0.3 mg/kg ip) of 4.8 min and a half-life ([3]; 1 mg/kg oral) of 67.2 min. The Tmax ([3]; 1 mg/kg oral) was 15 min, the “Time remaining in the brain” value ([3]; following ip injection or oral administration) was “at least 60 min” and the “86Rb+ efflux Efficacy” value (α4β2 (α5KO) nAChRs; Cortex) was 169 ± 20%. The EC50 (α4β2 (α5KO) nAChRs; Cortex) was 2400 ± 700 nM, the “86Rb+ efflux Efficacy” value (α4β2 (α5KO) nAChRs; Thalamus) was 166 ± 32% and the EC50 (α4β2 (α5KO) nAChRs; Thalamus) was 1600 ± 500 nM. The Hit (Opioid, Mu (h)) was “FALSE”, the Inhibition (Opioid, Mu (h); [3H]-Diprenorphine) was -6.43% and the Hit (Esterase, Acetylcholine) was “FALSE”. The Inhibition (Esterase, Acetylcholine; substrate Acetylthiocholine) was 21.55%, the Hit (Serotonin, 5HT1D) was “FALSE” and the Inhibition (Serotonin, 5HT1D; [3H]5-CT) was 9.99%. For the same compound, the Hit (Adenosine, A1) was “FALSE”, the Inhibition (Adenosine, A1; [3H]CPX) was 7.85% and the “Duration of brain penetration and availability to nAChRs” value [4] was at least 20 min. The “[TC299423] in brain” value ([4]; 5 min) was 45 ± 25 pmol/mg, the “[TC299423] in brain” value ([4]; 10 min) was 88 ± 18 pmol/mg and the “[TC299423] in brain” value ([4]; 20 min) was 73 ± 4.0 pmol/mg. For the same compound, the “[TC299423] in assay” value ([4]; 5 min) was 2.2 ± 1.1 nM, the “[TC299423] in assay” value ([4]; 10 min) was 4.4 ± 0.9 nM and the “[TC299423] in assay” value ([4]; 20 min) was 3.7 ± 0.2 nM. The “Blood measurements: [TC299423]” value ([4]; 5 min) was 250 ± 50 nM, the “Blood measurements: [TC299423]” value ([4]; 10 min) was 370 ± 70 nM and the “Blood measurements: [TC299423]” value ([4]; 20 min) was 120 ± 30 nM. The Ki (α6β2* nAChRs; α4KO striatal membranes) was 1.4 ± 0.6 nM, the “Difference between Ki ([125I]epibatidine) and EC50 ([3H]dopamine release)” value (α6β2* nAChRs; α6β2* nAChRs) was about 20 fold and the Emax (α4β2* nAChRs; read-out: Neurotransmitter release % Efficacy, WT striatal synaptosomes, single component) was 76 ± 5%. The Emax (α4β2* nAChRs; read-out: Neurotransmitter release % Efficacy, α5KO striatal synaptosomes) was 112 ± 9%, the EC50 (α4β2* nAChRs; WT striatal synaptosomes, single component) was 130 nM and the EC50 (α4β2* nAChRs; α5KO striatal synaptosomes) was 600 nM. For the same compound, the Hit (Serotonin, 5HT2C) was “FALSE”, the Inhibition (Serotonin, 5HT2C; [3H]Mesulergine) was -2.21% and the Hit (Muscarinic, M2 (h)) was “FALSE”. The Inhibition (Muscarinic, M2 (h); [3H]Scopolamine, N-Methyl) was -3.18%, the Hit [5] was “FALSE” and the Inhibition ([5]; [3H]CGP 39653) was 5.51%. For the same compound, the Hit (Serotonin, 5HT6 (h)) was “FALSE”, the Inhibition (Serotonin, 5HT6 (h); [3H]-LSD) was 8.87% and the Hit (Muscarinic, M4 (h)) was “FALSE”. For the same compound, the Inhibition (Muscarinic, M4 (h); [3H]Scopolamine, N-Methyl) was -6.69%, the Hit (Adrenergic, Alpha 1B) was “FALSE” and the Inhibition (Adrenergic, Alpha 1B; [3H]-7-MeOxy-Prazosin) was -8.31%. For the same compound, the Hit [6] was “FALSE”, the Inhibition ([6]; [3H]TCP) was 7.71% and the Hit (Serotonin, 5HT7 (h)) was “FALSE”. The Inhibition (Serotonin, 5HT7 (h); [3H]LSD) was -2.10%.
